Key:
J77A4 macrophages = assay: IL-6 release from cultured macrophages in the absence of palmitate stimulation; assay type: cell-based, murine
Description: (a-b) Skeletal muscle and liver IL-6 protein expression. (c) Total plasma adiponectin. (d) Immunoblots for pAMPK thr172 and total AMPK in skeletal muscle. (e) Immunoblots for pSTAT-3 ser727 and total STAT-3 in liver. Quantification of densitometry analyses for immunoblots are shown below the representative gels. In each case lanes were run on the same gel but were noncontiguous. (f-h) Relative mRNA expression for Ppargc1, Pck1 and G6Pc in liver. All genes were normalized to GAPDH using the delta delta CT method. All data are mean±SEM, n=6, *P<0.05, **P<0.01 vs Saline; ^†P<0.05, ^††P<0.01vs Lipid. (i) IL-6 in media of C2C12 myotubes exposed to PDX for 2 h. (j) IL-6 mRNA expression in C2C12 myotubes exposed to PDX for 2 h. (k) Immunoblots for pAMPK thr172 and total AMPK in C2C12 myotubes exposed to PDX for 2 h. Quantification of densitometry analyses for immunoblots are shown below the representative gels. Lanes were run on the same gel but were noncontiguous. Data are mean±SEM of three independent experiments. *P<0.05, **P<0.01 vs vehicle. (I) IL-6 in media of C2C12 myotubes exposed to Veh, or 100 nM of PDX, PD1, 8(S),15(s)-DiHETE, or RvD1. Data are mean±SEM of three independent experiments. **P<0.01 vs vehicle. (m) IL-6 in media of J77A4 macrophages treated with Veh, LPS, or PDX (10, 100, or 1000 nM) for 30 min, 2 h and 8 h. (n) Immunoblots for pAMPK thr172 and total AMPK in C2C12 myotubes exposed to PDX for 2h. Quantification of densitometry analyses for immunoblots are shown below the representative gels. Data are mean±SEM of three independent experiments. **P<0.01 vs vehicle.
In order to address the dichotomy in PDX's effect on IL-6 release from muscle versus macrophages, we next examined the impact of PDX on IL-6 release from cultured macrophages in the absence of palmitate stimulation (FIG. 5m). […] Since activation of AMPK represses inflammatory cytokine production in macrophages^19 this may explain the opposing effect of PDX on IL-6 expression and release in skeletal myotubes and activated macrophages.

[1] = system: genetically obese db/db mice; assay: 4 mU/kg hyperinsulinemic-isoglycemic clamp in db/db mice, acute PDX; assay type: in vivo
Procedure: The 4 mU/kg hyperinsulinemic-isoglycemic clamp study was performed in 10 week old db/db mice from the BKS.Cg-Dock7^m+/+Lepr^db/J strain at Jackson Labs. Mice were randomly assigned to vehicle or PDX treatment groups. In preparation for the clamps mice were catheterized as described for the lipid infusion study. Mice were administered 2 ug of PDX or an equal volume of vehicle i.v. at 4 h and also 90 minutes prior to the initiation of the insulin pump. Pre-clamp glycemia was taken immediately prior to the second PDX shot. The clamp began 90 minutes later with a primed-continuous infusion of human insulin (16 mU/kg bolus followed by 4 mU·kg^−1·min^−1, Humulin R; Eli Lilly, Indianapolis, Ind.). Glycemia was maintained as close as possible to individual fasting values by infusing 20% dextrose as necessary. Blood samples were taken continuously to determine glycemia as well as insulin concentrations. Mice received saline-washed erythrocytes from donor mice throughout the experimental period (5-6 μl·min-1) to prevent a fall of ≧5% hematocrit.
We further explored the therapeutic efficacy of PDX in genetically obese db/db mice, a well-established model of T2D. Here we tested the ability of PDX to rapidly alleviate insulin resistance using a 4 mU/kg hyperinsulinemic-isoglycemic clamp (see design in FIG. 1). In these experiments, db/db mice were treated with vehicle or PDX (2 μg i.v.) 240 and 90 minutes prior to the initiation of the clamp.

db/db mice = assay: 5 days PDX treatment of db/db mice with hyperinsulinemic-isoglycemic clamp; assay type: in vivo
Procedure: In order to determine whether these beneficial effects of PDX could be sustained or improved with a prolonged treatment regimen, we administered 2 μg of PDX or vehicle (i.v.) twice daily to 17 week old db/db for 5 days leading up to the clamp experiment (FIGS. 10 and 11).
The hyperinsulinemic-isoglycemic clamp (FIG. 11) is the gold-standard for evaluating insulin stimulated glucose metabolism in viva Animals were fasted around 8 am (t=−300 min), and received a first injection of either PDX (2 μg/mice) or the vehicle (10% Ethanol) at t=−240 min. A second injection was given at time −90 min, after which the clamp procedure per se was started. This procedure consisted of a 90-min tracer equilibration period (t=−90 to 0 min) followed by a 120 min hyperinsulinemic isoglycemic clamp (t=0 to 120 min). A 50 μl blood sample was obtained at t=−90 min to determine radioactive-free plasma activity. A 0.5 μCi bolus of [3-3H]-glucose was given at t=−90 min followed by a 0.033 μCi/min infusion for 90 min (t=−90 to 0 min). At t=−30, -20, -10 and 0 min, blood samples were taken for the assessment of basal glucose and glucose specific activity. The insulin infusion began at t=0 min with a primed-continuous infusion of human insulin (16 mU/kg bolus followed by a 4 mU/kg/min infusion), to achieve plasma insulin concentrations 2.5-fold over basal concentrations. At t=0 min, the [3-3H]-glucose infusion was increased to 0.066 μCi/min for the remainder of the experiment to minimize changes in specific activity from the equilibration period. Isoglycemia was maintained by measuring blood glucose every 10 min starting at t=0 min and infusing 20% glucose as necessary to preserved the blood glucose at basal levels. Blood samples were taken every 10 min from t=90 to 120 min for the determination of glucose specific activity.

SMILES: CC/C=C\C[C@H](O)/C=C/C=C\C=C\[C@@H](O)C/C=C\C/C=C\CCC(=O)O [PDX, 10S,17S-dihydroxy-docosa-4Z,7Z,11E,13Z,15E,19Z-hexaeonic acid]
- AMPK phosphorylation (J77A4 macrophages; P<0.01): promote AMPK phosphorylation
- IL-6 mRNA expression (J77A4 macrophages; no palmitate): does not stimulate
- IL-6 release (J77A4 macrophages; no palmitate, PDX 10, 100, or 1000 nM for 30 min, 2 h and 8 h): does not stimulate
- lowering of pre-clamp glycemia ([1]; PDX 2 μg i.v. 240 and 90 minutes prior to clamp): did not reach statistical significance
- improvement of the GIR during the clamp ([1]; PDX 2 μg i.v. 240 and 90 minutes prior to clamp, P<0.01): 3.6 fold
- PGC-1α, PEPCK, and G6Pase mRNA expression in liver ([1]; PDX 2 μg i.v. x2): enhanced suppression
- IL-6 in the skeletal muscle and plasma ([1]; PDX 2 μg i.v. x2, P<0.01): increased
- adipose tissue chemokines or cytokines ([1]; epididymal adipose tissue): absence of any significant anti-inflammatory impact
- total body weight (db/db mice; 2 μg PDX i.v. twice daily for 5 days vs vehicle): no significant changes
- IL6 levels in eWAT (db/db mice; 5 day PDX treatment): no such increase
- fasting blood glucose (db/db mice; 5 day PDX treatment): not affected
- plasma IL-6 (db/db mice; 5 day PDX treatment): trend for increased
- plasmatic insulin levels (db/db mice; 5 day PDX treatment): not affected
- cytokines content in the eWAT (db/db mice; PDX-treated vs vehicle-treated): no difference
- insulin sensitivity (glucose infusion rate, GIR) (db/db mice; after the 5 days PDX treatment): clear improvement
- weight of tissues (iWAT, eWAT, liver, gastrocnemius, pancreas) (db/db mice; end of the 5 days treatment): No significant changes
- skeletal muscle IL-6 (db/db mice; gastrocnemius, P<0.05): elevated

From patent US9782379B2, “Use of protectin DX for the stimulation of muscular IL-6 secretion” (Universite Laval, priority 2013, dated 2017)
